{
  "source": "ChEMBL document CHEMBL5214900",
  "about": "“Design, Synthesis, and Biological Evaluation of Membrane-Active Bakuchiol Derivatives as Effective Broad-Spectrum Antibacterial Agents” (J Med Chem, 2021)",
  "key": {"Staphylococcus aureus [1]": {"system": "Staphylococcus aureus", "experiment": "Antibacterial activity against Staphylococcus aureus ATCC 29213 assessed as eradication of preformed bacterial biofilm by measuring residual biofilm viability at 3.125 ug/ml incubated for 24 hrs by crystal violet staining based assay relative to control", "type": "functional", "settings": "dose 3.125 µg/ml"}, "Staphylococcus aureus [2]": {"system": "Staphylococcus aureus", "experiment": "Antibacterial activity against Staphylococcus aureus NCTC10442 assessed as fold increase in MIC incubated for 24 hrs in presence of 2.5 mM Ca2+ by CLSI based broth dilution method", "type": "functional"}, "Escherichia coli [3]": {"system": "Escherichia coli", "experiment": "Antibacterial activity against Escherichia coli ATCC 25922 assessed as eradication of preformed bacterial biofilm by measuring residual biofilm viability at 25 ug/ml incubated for 24 hrs by crystal violet staining based assay relative to control", "type": "functional", "settings": "dose 25 µg/ml"}, "Escherichia coli [4]": {"system": "Escherichia coli", "experiment": "Antibiofilm activity against Escherichia coli ATCC 25922 assessed reduction in biofilm formation at […] ug/ml measured after 24 hrs by crystal violet staining based assay relative to control", "type": "functional", "design": "scale not given: the % may be the effect or the level left", "settings": "dose […] microg/ml, 1.56 ug/mL"}, "Staphylococcus aureus [5]": {"system": "Staphylococcus aureus", "experiment": "Antibacterial activity against Staphylococcus aureus ATCC 29213 assessed as fold increase in MIC incubated for 24 hrs in presence of 140 mM Na+ by CLSI based broth dilution method", "type": "functional"}, "Escherichia coli [6]": {"system": "Escherichia coli", "experiment": "Antibacterial activity against Escherichia coli ATCC 25922 assessed as eradication of preformed bacterial biofilm by measuring residual biofilm viability at 6.25 ug/ml incubated for 24 hrs by crystal violet staining based assay relative to control", "type": "functional", "settings": "dose 6.25 µg/ml"}, "Cell membrane [7]": {"system": "Cell membrane", "experiment": "Induction of outer membrane permeabilization in Escherichia coli ATCC 25922 assessed as increase in fluorescence intensity at 1 to 8 times MIC measured for 60 mins by NPN uptake assay", "type": "subcellular", "settings": "DDE = dose-dependent effect"}, "Escherichia coli [8]": {"system": "Escherichia coli", "experiment": "Bactericidal activity against Escherichia coli ATCC 25922 assessed as inhibition of bacterial regrowth at 4 to 8 times MIC measured after 24 hrs by time-killing assay", "type": "functional, organism-based"}, "Escherichia coli [9]": {"system": "Escherichia coli", "experiment": "Antibacterial activity against Escherichia coli ATCC 25922 assessed as fold increase in MIC incubated for 24 hrs in presence of 2.5 mM Ca2+ by CLSI based broth dilution method", "type": "functional"}, "Staphylococcus aureus [10]": {"system": "Staphylococcus aureus", "experiment": "Bactericidal activity against Staphylococcus aureus ATCC 29213 assessed as bacterial killing at 8 times MIC measured after 24 hrs by time-killing assay relative to control", "type": "functional"}, "Staphylococcus aureus [11]": {"system": "Staphylococcus aureus", "experiment": "Bactericidal activity against Staphylococcus aureus ATCC 29213 assessed as bacterial killing at 8 times MIC measured after 8 hrs by time-killing assay relative to control", "type": "functional"}, "Escherichia coli [12]": {"system": "Escherichia coli", "experiment": "Antibacterial activity against Escherichia coli ATCC 25922 assessed as eradication of preformed bacterial biofilm by measuring residual biofilm viability at 12.5 ug/ml incubated for 24 hrs by crystal violet staining based assay relative to control", "type": "functional", "settings": "dose 12.5 µg/ml"}, "[13]": {"experiment": "Toxicity in C57BL/6 mouse assessed as corneal damage at 0.8 mg/ml, TOP administered 4 times a day for 3 consecutive days", "settings": "in vivo, topical_or_ocular, 72 h, time 3 day"}, "Escherichia coli [14]": {"system": "Escherichia coli", "experiment": "Antibacterial activity against Escherichia coli ATCC 25922 assessed as eradication of preformed bacterial biofilm by measuring residual biofilm viability at […] ug/ml incubated for 24 hrs by crystal violet staining based assay relative to control", "type": "functional", "settings": "dose […] microg/ml, 1.56 ug/mL"}, "Staphylococcus aureus [15]": {"system": "Staphylococcus aureus", "experiment": "Antibacterial activity against Staphylococcus aureus ATCC 29213 assessed as eradication of preformed bacterial biofilm by measuring residual biofilm viability at 25 ug/ml incubated for 24 hrs by crystal violet staining based assay relative to control", "type": "functional", "settings": "dose 25 µg/ml"}, "Lipopolysaccharide (LPS) [16]": {"system": "Lipopolysaccharide (LPS)", "experiment": "Displacement of BODIPY-TR-cadaverine from Escherichia coli Lipopolysaccharide at 1 times MIC measured for 30 mins by fluorescence based microplate reader assay relative to control"}, "[17]": {"experiment": "Cytotoxicity against mouse NCTC clone 929 cells assessed as cell viability at 25 ug/ml incubated for 24 hrs by CCK-8 assay relative to control", "type": "toxicity, cell-based", "settings": "at 25 µg/mL, read-out: Activity"}, "Staphylococcus aureus [18]": {"system": "Staphylococcus aureus", "experiment": "Induction of drug resistance in Staphylococcus aureus ATCC 29213 assessed as fold change in MIC measured after 19 passages by CLSI based broth dilution method", "type": "functional"}, "[19]": {"experiment": "Cytotoxicity against mouse NCTC clone 929 cells assessed as cell viability incubated for 24 hrs by CCK-8 assay", "type": "toxicity, cell-based"}, "Acinetobacter baumannii [20]": {"system": "Acinetobacter baumannii", "experiment": "Antibacterial activity against Acinetobacter baumannii ATCC 17978 assessed as fold increase in MIC incubated for 24 hrs in presence of 2.5 mM Ca2+ by CLSI based broth dilution method", "type": "functional"}, "Lipoteichoic acid": {"system": "Lipoteichoic acid", "experiment": "Displacement of BODIPY-TR-cadaverine from Bacillus subtilis Lipoteichoic acid at 8 times MIC measured for 30 mins by fluorescence based microplate reader assay relative to control"}, "Staphylococcus aureus [21]": {"system": "Staphylococcus aureus", "experiment": "Antibacterial activity against Staphylococcus aureus NCTC10442 assessed as fold increase in MIC incubated for 24 hrs in presence of 1 mM Mg2+ by CLSI based broth dilution method", "type": "functional"}, "Escherichia coli [22]": {"system": "Escherichia coli", "experiment": "Antibacterial activity against Escherichia coli ATCC 25922 assessed as eradication of preformed bacterial biofilm by measuring residual biofilm viability at 3.125 ug/ml incubated for 24 hrs by crystal violet staining based assay relative to control", "type": "functional", "settings": "dose 3.125 µg/ml"}, "Staphylococcus aureus [23]": {"system": "Staphylococcus aureus", "experiment": "Antibiofilm activity against Staphylococcus aureus ATCC 29213 assessed reduction in biofilm formation at 3.125 ug/ml measured after 24 hrs by crystal violet staining based assay relative to control", "type": "functional", "design": "scale not given: the % may be the effect or the level left", "settings": "dose 3.125 µg/ml"}, "Escherichia coli [24]": {"system": "Escherichia coli", "experiment": "Antibacterial activity against Escherichia coli ATCC 25922 assessed as fold increase in MIC incubated for 24 hrs in presence of 1 mM Mg2+ by CLSI based broth dilution method", "type": "functional"}, "[25]": {"experiment": "Cytotoxicity against mouse NCTC clone 929 cells assessed as cell viability at 6.25 ug/ml incubated for 24 hrs by CCK-8 assay relative to control", "type": "toxicity, cell-based", "settings": "at 6.25 µg/mL, read-out: Activity"}, "Staphylococcus aureus [26]": {"system": "Staphylococcus aureus", "experiment": "Antibiofilm activity against Staphylococcus aureus ATCC 29213 assessed reduction in biofilm formation at […] ug/ml measured after 24 hrs by crystal violet staining based assay relative to control", "type": "functional", "design": "scale not given: the % may be the effect or the level left", "settings": "dose […] microg/ml, 1.56 ug/mL"}, "Acinetobacter baumannii [27]": {"system": "Acinetobacter baumannii", "experiment": "Antibacterial activity against Acinetobacter baumannii ATCC 17978 assessed as fold increase in MIC incubated for 24 hrs in presence of 1 mM Mg2+ by CLSI based broth dilution method", "type": "functional"}, "Lipopolysaccharide (LPS) [28]": {"system": "Lipopolysaccharide (LPS)", "experiment": "Displacement of BODIPY-TR-cadaverine from Escherichia coli Lipopolysaccharide at 4 times MIC measured for 30 mins by fluorescence based microplate reader assay relative to control"}, "Staphylococcus aureus [29]": {"system": "Staphylococcus aureus", "experiment": "Antibacterial activity against Staphylococcus aureus ATCC 29213 assessed as eradication of preformed bacterial biofilm by measuring residual biofilm viability at 0.78 ug/ml incubated for 24 hrs by crystal violet staining based assay relative to control", "type": "functional", "settings": "dose 0.78 µg/ml"}, "Staphylococcus aureus [30]": {"system": "Staphylococcus aureus", "experiment": "Antibacterial activity against Staphylococcus aureus ATCC 29213 assessed as eradication of preformed bacterial biofilm by measuring residual biofilm viability at 12.5 ug/ml incubated for 24 hrs by crystal violet staining based assay relative to control", "type": "functional", "settings": "dose 12.5 µg/ml"}, "Cell membrane [31]": {"system": "Cell membrane", "experiment": "Disruption of membrane integrity in Pseudomonas aeruginosa ATCC 9027 assessed as increase in red fluorescence intensity at 8 times MIC incubated for 2 hrs by SYTO 9/PI staining based fluorescence analysis", "type": "subcellular"}, "Escherichia coli [32]": {"system": "Escherichia coli", "experiment": "Antibacterial activity against Escherichia coli ATCC 25922 assessed as fold increase in MIC incubated for 24 hrs in presence of 4.5 mM K+ by CLSI based broth dilution method", "type": "functional"}},
  "note": "Calls of active or inactive are those of the source. The calls are words filed in the database; no cut-off is given here.",
  "data": [
    {"compound": "C=C[C@@](C)(/C=C/c1ccc(OCCCCN(CCCN(C)C)CCCN(C)C)cc1)CCC=C(C)C", "values": [
      {"measurement": "Activity", "setting": "Staphylococcus aureus [1]", "result": 52.49, "unit": "%"},
      {"measurement": "fold change (FC)", "setting": "Staphylococcus aureus [2]", "result": "<2"},
      {"measurement": "Activity", "setting": "Escherichia coli [3]", "result": 2.38, "unit": "%"},
      {"measurement": "Activity", "setting": "Escherichia coli [4]", "result": 38.45, "unit": "%"},
      {"measurement": "fold change (FC)", "setting": "Staphylococcus aureus [5]", "result": "<2"},
      {"measurement": "Activity", "setting": "Escherichia coli [6]", "result": 22.69, "unit": "%"},
      {"measurement": "Activity", "setting": "Cell membrane [7]", "result": "Dde"},
      {"measurement": "Activity", "setting": "Escherichia coli [8]", "result": "Active"},
      {"measurement": "fold change (FC)", "setting": "Escherichia coli [9]", "result": "<2"},
      {"measurement": "Activity", "setting": "Staphylococcus aureus [10]", "result": 100, "unit": "%"},
      {"measurement": "Activity", "setting": "Staphylococcus aureus [11]", "result": ">=99.9%"},
      {"measurement": "Activity", "setting": "Escherichia coli [12]", "result": 10.78, "unit": "%"},
      {"measurement": "Activity", "setting": "[13]", "result": "Non-Toxic"},
      {"measurement": "Activity", "setting": "Escherichia coli [14]", "result": 69.09, "unit": "%"},
      {"measurement": "Activity", "setting": "Staphylococcus aureus [15]", "result": 11.49, "unit": "%"},
      {"measurement": "Activity", "setting": "Lipopolysaccharide (LPS) [16]", "result": 36.9, "unit": "%"},
      {"measurement": "viability at 24 h, 25 ug/ml", "setting": "[17]", "result": 74.1, "unit": "%"},
      {"measurement": "fold change (FC)", "setting": "Staphylococcus aureus [18]", "result": "< 4"},
      {"measurement": "CC50 at 24 h", "setting": "[19]", "result": 36.8, "unit": "µg/mL"},
      {"measurement": "fold change (FC)", "setting": "Acinetobacter baumannii [20]", "result": "<2"},
      {"measurement": "Activity", "setting": "Lipoteichoic acid", "result": 57.9, "unit": "%"},
      {"measurement": "fold change (FC)", "setting": "Staphylococcus aureus [21]", "result": "<2"},
      {"measurement": "Activity", "setting": "Escherichia coli [22]", "result": 49.85, "unit": "%"},
      {"measurement": "Activity", "setting": "Staphylococcus aureus [23]", "result": 96.53, "unit": "%"},
      {"measurement": "fold change (FC)", "setting": "Escherichia coli [24]", "result": "<2"},
      {"measurement": "viability at 24 h, 6.25 ug/ml", "setting": "[25]", "result": 84.9, "unit": "%"},
      {"measurement": "Activity", "setting": "Staphylococcus aureus [26]", "result": 42.21, "unit": "%"},
      {"measurement": "fold change (FC)", "setting": "Acinetobacter baumannii [27]", "result": "<2"},
      {"measurement": "Activity", "setting": "Lipopolysaccharide (LPS) [28]", "result": 64.4, "unit": "%"},
      {"measurement": "Activity", "setting": "Staphylococcus aureus [29]", "result": 88.63, "unit": "%"},
      {"measurement": "Activity", "setting": "Staphylococcus aureus [30]", "result": 24.19, "unit": "%"},
      {"measurement": "Activity", "setting": "Cell membrane [31]", "result": "Active"},
      {"measurement": "fold change (FC)", "setting": "Escherichia coli [32]", "result": "<2"}
    ]}
  ]
}
